{"source": "patent US20100197625A1", "about": "“SYNTHETIC LIPOPHILIC INOSITOL GLYCANS FOR TREATMENT OF CANCER AND GLUCOSE-METABOLISM DISORDERS” (priority 2006, published 2010)", "key": {"[1]": {"tested_on": "C57B/6 mice on normal diets", "test": "Intraperitoneal IG1 for 7 days, mice on normal diets", "format": "in vivo", "details": "intraperitoneal for every 7 days, data not shown", "description": "(§1) Male C57BL/6 mice were housed individually and given free access to a standard diet (65% carbohydrate, 4% fat, and 24% protein) or a high-fat diet (Quick Fat; 60.2% carbohydrate, 15.3% fat, and 24.5% protein; Clea Japan, Tokyo, Japan), starting at 5 weeks of age, for 5 weeks. Db/db mice also were housed individually and given free access to a standard diet. C57BL/6 mice at 5 weeks of age, were received a single dose of 75 μg/g body weight streptozotoxin (STZ). 7 days after injections, the mice, whose fasting plasma glucose concentrations were over 400 mg/dl, were used as STZ-diabetic mice. […]\n(§2) Frozen livers were homogenized, and triglycerides were extracted with CHCl3:CH3OH (2:1, vol:vol), dried and resuspended in 2-propanol (17). Triglyceride contents were measured using Lipidos liquid (TOYOBO, Osaka, Japan). […] Glycogen content was determined by the phenol-sulfuric acid spectrophotometric method at 490 nm (18) and expressed as micrograms of glycogen per milligram of liver.\n(§3) Blood glucose was assayed with Glucose Ace (Sanwa Kagaku Kenkyusho, Nagoya, Japan). Serum insulin and leptin were determined with ELISA kits (Morinaga Institute of Biological Science, Yokohama, Japan). Serum adiponectin and tumor necrosis factor-α (TNF-α) concentrations were measured with an ELISA kit (Ohtsuka Pharmaceutical, Tokyo, Japan) and a TNF-α assay kit (Amersham Biosciences, Uppsala, Sweden), respectively. […]"}, "[2]": {"tested_on": "db/db mice", "test": "Intraperitoneal IG1 for 7 days, db/db mice", "format": "in vivo", "details": "intraperitoneal for every 7 days, data not shown", "description": "as §1, §2, §3"}, "[3]": {"tested_on": "db/db, obese-diabetic mice", "test": "Intravenous administration of IG1, db/db mice", "format": "in vivo", "description": "as §1, §2, §3"}, "[4]": {"tested_on": "MKN45", "test": "Cell proliferation / cell death assay, MKN45", "format": "cell-based, human", "details": "MKN45, 10-100 μM", "description": "(§4) Human pancreatic cancer cell lines (Panc-1, MiaPaca2, BXPC3, Aspc 1), human hepatoma cell line (HuH7), human gastric cancer cell lines (AGS, MKN45), human colon cancer cell line (CoCM-1), human mammary cancer cell line (MCF-7), human neuroblastoma (SH-SY5Y), human prostate cancer cells (PC3), and murine Ehrlich ascites cancer cells and mouse 3T3-L1 fibroblasts were obtained from American Type Culture Collection (Rockville, Md., USA). The cancer cells were cultured in RPMI 1640 containing 10% fetal calf serum. Cultures were maintained at 37° C. in a humidified atmosphere of 5% CO2.\n(§5) Cell proliferation assays were performed with the CellTiter 96 AQueous One Solution Cell Proliferation Assay kit according to the manufacturer's instructions (Promega, Madison, Wis., USA). Briefly, 5×10^3 cells/well in medium were placed onto 96-well plates. IGs were added to cellular cultures at final concentrations of 0, 1, 10, and 100 μM. Cultures were incubated for 3 days or 7 days and then added to 20 μL/well of CellTiter 96 AQueous One Solution Reagent, which contains a tetrazolium compound, 3-(4,5-dimethylthiazol-2-yl)-5-(3-carboxymethoxyphenyl)-2-(4-sulfophenyl)-2H-tetrazolium, an inner salt; MTS was added to the culture medium. After incubating the plate for 1 h in a CO2 incubator, absorbance at 490 nm was recorded with a 96-well plate reader."}, "[5]": {"tested_on": "human hepatoma (HuH7)", "test": "Cell proliferation / cell death assay, HuH7", "format": "cell-based", "details": "HuH7, 10-100 μM", "description": "as §4\nas §5, with “Cultures were incubated for 3 days or 7 days and then added to 20 μL/well” left out"}, "[6]": {"tested_on": "C57B/6 mice on high-fat diets", "test": "IG1 treatment for 28 days, mice on high-fat diets", "format": "in vivo", "details": "data not shown", "description": "(§6) Male C57BL/6 mice were housed individually and given free access to a standard diet (65% carbohydrate, 4% fat, and 24% protein) or a high-fat diet (Quick Fat; 60.2% carbohydrate, 15.3% fat, and 24.5% protein; Clea Japan, Tokyo, Japan), starting at 5 weeks of age, for 5 weeks. Db/db mice also were housed individually and given free access to a standard diet. C57BL/6 mice at 5 weeks of age, were received a single dose of 75 μg/g body weight streptozotoxin (STZ). 7 days after injections, the mice, whose fasting plasma glucose concentrations were over 400 mg/dl, were used as STZ-diabetic mice. Animal study protocols were in accordance with the institutional guidelines for animal experiments at Tohoku University.\n(§7) Blood glucose was assayed with Glucose Ace (Sanwa Kagaku Kenkyusho, Nagoya, Japan). Serum insulin and leptin were determined with ELISA kits (Morinaga Institute of Biological Science, Yokohama, Japan). Serum adiponectin and tumor necrosis factor-α (TNF-α) concentrations were measured with an ELISA kit (Ohtsuka Pharmaceutical, Tokyo, Japan) and a TNF-α assay kit (Amersham Biosciences, Uppsala, Sweden), respectively. Serum total cholesterol, triglyceride, and FFA concentrations were determined with a Cholescolor liquid, Lipidos liquid (TOYOBO, Osaka, Japan), and NEFA C (Wako Pure Chemical, Osaka, Japan) kits, respectively."}, "[7]": {"tested_on": "C57B/6 mice on high-fat diets", "test": "Intraperitoneal IG1 for 7 days, mice on high-fat diets", "format": "in vivo", "description": "as §6\nFrozen livers were homogenized, and triglycerides were extracted with CHCl3:CH3OH (2:1, vol:vol), dried and resuspended in 2-propanol (17). Triglyceride contents were measured using Lipidos liquid (TOYOBO, Osaka, Japan). Glycogen was isolated from 30-50 mg of frozen liver by dissolving the tissue in 30% potassium hydroxide saturated with Na2SO4 for 30 min at 100° C., followed by ethanol precipitation. Glycogen content was determined by the phenol-sulfuric acid spectrophotometric method at 490 nm (18) and expressed as micrograms of glycogen per milligram of liver.\nas §7\nGlucose tolerance was assessed with intraperitoneal glucose tolerance. Glucose tolerance tests were performed on fasted (16 h) mice. Mice were given intraperitoneal glucose (2 g/kg body wt), and blood glucose was assayed immediately before and at 15, 30, 60, and 120 min after administration."}, "[8]": {"tested_on": "Panc-1 cells", "test": "ATP contents in Panc-1 cells", "format": "cell-based, human", "details": "1 hour incubation in serum free media", "description": "as §4"}, "[9]": {"details": "high fat-diets, IG1 1 mg, 7 days, Mean ± SD (n = 6)"}}}
{"smiles": "CCCCCCCCCCCCCCCC(=O)O[C@@H]1C(O)C(O)[C@H](O)C(O[C@H]2OC(CO)[C@@H](O)[C@H](O)C2N)C1O", "note": "(stereo in doubt) [IG1, 2-Amino-2-deoxy-α-D-glucopyranosyl-(1→6)-2-palmitoyl-D-myo-inositol]", "values": [{"measurement": "glucose tolerance", "setting": "[1]", "result": "improves glucose tolerance"}, {"measurement": "hepatic and muscular glycogen synthesis", "setting": "[1]", "result": "increases hepatic and muscular glycogen synthesis"}, {"measurement": "glucose tolerance", "setting": "[2]", "result": "improves glucose tolerance"}, {"measurement": "hepatic and muscular glycogen synthesis", "setting": "[2]", "result": "increases hepatic and muscular glycogen synthesis"}, {"measurement": "hepatic and muscular glycogen synthesis", "setting": "[3]; data not shown", "result": "increases hepatic and muscular glycogen synthesis"}, {"measurement": "plasma glucose concentrations", "setting": "[3]; intravenous", "result": "reduced plasma glucose concentrations"}, {"measurement": "rapid cancer cell death", "setting": "[4]", "result": "rapid cancer cell death was demonstrated"}, {"measurement": "rapid cancer cell death", "setting": "[5]", "result": "rapid cancer cell death was demonstrated"}, {"measurement": "daily food intakes, body weight, and fasting plasma concentrations of insulin, triglyceride, free fatty acids and leptin", "setting": "[6]", "result": "significantly reduces"}, {"measurement": "hepatic and muscular glycogen contents", "setting": "[7]; after 7 days, data not shown", "result": "increases hepatic and muscular glycogen contents"}, {"measurement": "hepatic triglyceride contents", "setting": "[7]; after 7 days, data not shown", "result": "decreases hepatic triglyceride contents"}, {"measurement": "Adiponectin", "setting": "[7]; [9]", "result": "50.4 ± 4.8", "unit": "µg/mL"}, {"measurement": "Body weight", "setting": "[7]; [9]", "result": "32.1 ± 1.8", "unit": "g"}, {"measurement": "Fasting plasma glucose", "setting": "[7]; [9]", "result": "62.8 ± 6.3", "unit": "mg/dL"}, {"measurement": "Fasting plasma insulin", "setting": "[7]; [9]", "result": "0.44 ± 0.19", "unit": "ng/mL"}, {"measurement": "Food intake", "setting": "[7]; [9]", "result": "2.93 ± 0.37", "unit": "g/day"}, {"measurement": "Leptin", "setting": "[7]; [9]", "result": "17.3 ± 5.4", "unit": "ng/mL"}, {"measurement": "NEFA", "setting": "[7]; [9]", "result": "0.78 ± 0.18", "unit": "mEq/l"}, {"measurement": "TNF-1α", "setting": "[7]; [9]", "result": "33.7 ± 4.4", "unit": "pg/mL"}, {"measurement": "Total cholesterol", "setting": "[7]; [9]", "result": "177.9 ± 24.6", "unit": "mg/dL"}, {"measurement": "Triglyceride", "setting": "[7]; [9]", "result": "26.2 ± 4.4", "unit": "mg/dL"}, {"measurement": "glucose tolerance", "setting": "[7]; intraperitoneal, 1 mg per mice, for every 7 days", "result": "significantly improved glucose tolerance"}, {"measurement": "ATP contents", "setting": "[8]", "result": "does not affect ATP contents"}]}
